Experimental data reported in patent US20240002394A1, “DEUTERIUM-MODIFIED THIENOPYRIDONE COMPOUND” (Chia Tai Tianqing Pharmaceutical Group Co., Ltd., priority 2020, published 2024).

Legend:
[1] = In vitro liver microsomal stability (HLM); format: in vitro ADME, human
Procedure: (§1) Preparation of liver microsome incubated samples: PBS buffer (pH 7.4), liver microsome solutions (0.5 mg/mL; HLM and MLM, respectively), the test compounds and NADPH+MgCl2 solution were mixed and incubated at 37° C. at 300 rpm for 1 h. Preparation of zero-hour samples: PBS buffer (pH 7.4), liver microsome solutions (0.5 mg/mL; HLM and MLM, respectively) and the test compounds were mixed. An acetonitrile solution containing internal standard was added to the samples, and supernatants were prepared by protein precipitation, diluted and then analyzed by LC/MS/MS.

[2] = In vitro liver microsomal stability (MLM); format: in vitro ADME, mouse
Procedure: as §1

[3] = molecular target: HPK1 (Homo sapiens (Human), UniProt Q92918); assay: Assay for in vitro inhibitory activity against HPK1 kinase; format: biochemical; conditions: ATP 0.1 mM; HTRF, STK Substrate 1-biotin; read-out: In vitro inhibitory activity against enzyme HPK1 IC50
Sequence of HPK1 (Q92918 whole entry): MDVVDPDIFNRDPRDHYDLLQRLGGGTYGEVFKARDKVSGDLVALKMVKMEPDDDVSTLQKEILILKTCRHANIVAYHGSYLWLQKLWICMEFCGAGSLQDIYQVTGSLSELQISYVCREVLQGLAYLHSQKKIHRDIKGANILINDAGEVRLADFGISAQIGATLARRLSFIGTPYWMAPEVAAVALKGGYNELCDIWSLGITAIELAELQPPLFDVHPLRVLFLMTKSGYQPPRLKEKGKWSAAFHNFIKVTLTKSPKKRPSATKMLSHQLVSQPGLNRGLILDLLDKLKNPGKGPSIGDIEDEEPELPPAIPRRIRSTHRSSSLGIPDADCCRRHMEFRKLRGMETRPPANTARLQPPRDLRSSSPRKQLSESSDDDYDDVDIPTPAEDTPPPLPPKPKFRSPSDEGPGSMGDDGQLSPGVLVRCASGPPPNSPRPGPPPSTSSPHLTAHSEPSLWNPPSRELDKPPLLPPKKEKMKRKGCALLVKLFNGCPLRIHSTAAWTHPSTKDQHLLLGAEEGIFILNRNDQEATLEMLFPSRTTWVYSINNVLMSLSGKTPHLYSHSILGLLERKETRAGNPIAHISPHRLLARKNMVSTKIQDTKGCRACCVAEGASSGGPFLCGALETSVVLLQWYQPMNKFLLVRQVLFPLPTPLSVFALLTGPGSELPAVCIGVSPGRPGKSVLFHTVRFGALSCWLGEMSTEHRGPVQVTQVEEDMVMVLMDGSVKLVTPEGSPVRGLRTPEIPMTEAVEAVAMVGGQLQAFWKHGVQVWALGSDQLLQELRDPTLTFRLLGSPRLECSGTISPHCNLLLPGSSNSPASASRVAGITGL
Procedure: The kinase buffer (Enzymatic buffer 5×) was diluted to 1×, and 10 mM MgCl2, 1 mM DTT, and 0.005% Tween 20 were added. The 100 ng/μL HPK1 (Life technology) stock solution was diluted with the kinase buffer to obtain a 1.67×, 1.67 ng/μL working solution (final concentration: 1 ng/μL), and the working solution was seeded in a 384-well plate at 6 μL/well. Different compounds dissolved in DMSO were added to the wells using a nanoliter pipettor to final concentrations of 1000 nM to 0.244 nM (4-fold serial dilution, 7 concentrations in total), and blank control wells (without enzyme) and negative control wells (with enzyme, plus vehicle DMSO) were set; the wells were set in duplicate. After the enzyme and compounds were incubated at room temperature for 1 h, a 5×, 0.5 mM ATP dilution (final concentration: 0.1 mM) in the kinase buffer was mixed with a 5×, 2.5 μM substrate (Cisbio, STK Substrate 1-biotin; final concentration: 500 nM) in equal volume, and the mixture was added to each well at 4 μL/well. The plate was sealed with a film and then incubated at room temperature for 2 h. An assay antibody solution was prepared by mixing the antibody STK Antibody-cryptate (Cisbio, 5 μL/test) and a 4×, 500 nM Streptavidin-XL665 (Cisbio; final concentration: 125 nM) in equal volume and was added to each well at 10 μL/well, and the plate was incubated at room temperature for 1 h. The signal values ([…]) were measured using a PE Envision multi-functional microplate reader, and IC50 was calculated by four-parameter fitting.

[4] = system: Jurkat cell p-SLP76 phosphorylation; assay: Assay for Jurkat cell p-SLP76 phosphorylation inhibitory activity; format: cell-based; conditions: Homo sapiens, 0.5 h; Jurkat cells, CD3CD28 stimulation 30 min; read-out: Jurkat cell p-SLP76 phosphorylation inhibition IC50
Procedure: The Jurkat cells in a good growth state were added to a centrifuge tube, centrifuged, and resuspended. The cell density was adjusted to 6.25×10^6 cells/mL, and the cells were seeded in a 384-well small-volume white plate at 8 μL/well. Compounds were added in duplicate using a nanoliter pipettor to final concentrations of 2500 nM to 10.29 nM and a control was set. After 1 h of cell culture, the stimulator CD3CD28 (4 μL; manufacturer: Stemcell) was added and the cells were incubated at 37° C. for 30 min. 3 μL of lysis buffer (manufacturer: BioAuxilium) was added to each well, and the plate was shaken at room temperature for 30 min. After the lysate was well mixed, 5 μL of pre-mixed antibody (manufacturer: BioAuxilium) in assay buffer was added and the plate was incubated overnight at room temperature. The signal values were measured on a PerkinElmer Envision multi-functional microplate reader (excitation: 320 nm, emission: 615 nm/665 nm), and IC50 was calculated by four-parameter fitting.

[5] = HLM 0.5 mg/mL, 37° C., NADPH, 60 min
[6] = MLM 0.5 mg/mL, 37° C., NADPH, 60 min

| Compound | HLM (0.5 mg/mL) Remaining percentage (T = 60 min) [1, 5] [%] | MLM (0.5 mg/mL) Remaining percentage (T = 60 min) [2, 6] [%] | IC50 [3] [nM] | IC50 [4] [nM] | HLM (0.5 mg/mL) Remaining percentage (T = 60 min) ([1]; human, microsomes, 1 h, pH 7.4) [%] | MLM (0.5 mg/mL) Remaining percentage (T = 60 min) ([2]; mouse, microsomes, 1 h, pH 7.4) [%] |
| --- | --- | --- | --- | --- | --- | --- |
| [2H]C1([2H])N(C)C([2H])([2H])C([2H])([2H])N(c2ccc3[nH]c(-c4c(N)c5ccsc5[nH]c4=O)nc3c2)C1([2H])[2H] [Example 2, 4-amino-5-(5-(4-methylpiperazin-1-yl-2,2,3,3,5,5,6,6-d8)-1H-benzo[d]imidazol-2-yl)thieno [2,3-b]pyridin-6(7H)-one] | 89.66 | 45.97 | 9.7 |  |  |  |
| [2H]c1cc2c(N)c(-c3nc4c([2H])c(N5CCN(C)CC5)c([2H])cc4[nH]3)c(=O)[nH]c2s1 [Example 5, 4-amino-5-(5-(4-methylpiperazin-1-yl)-1H-benzo[d]imidazol-2-yl-4,6-d2)thieno[2,3-b]pyridin-6(7H)-one-2-d] |  |  | 8.8 | 53 |  |  |
| [2H]C1([2H])CN(C)CC([2H])([2H])N1c1ccc2[nH]c(-c3c(N)c4ccsc4[nH]c3=O)nc2c1 [Example 4, 4-amino-5-(5-(4-methylpiperazin-1-yl-2,2,6,6-d4)-1H-benzo[d]imidazol-2-yl)thieno[2,3-b]pyridin-6(7H)-one] |  |  | 9.2 | 83 | 88.50 | 42.58 |
| [2H]C1([2H])CN(c2ccc3[nH]c(-c4c(N)c5ccsc5[nH]c4=O)nc3c2)CC([2H])([2H])N1C [Example 3, 4-amino-5-(5-(4-methylpiperazin-1-yl-3,3,5,5-d4)-1H-benzo[d]imidazol-2-yl)thieno[2,3-b]pyridin-6(7H)-one] | 90.85 | 45.47 | 7.5 |  |  |  |
